Measured values reported in patent US20200330446A1, “COMPOSITIONS AND METHODS OF TREATING SKIN FIBROTIC DISORDERS” (AIVIVA BIOPHARMA, INC., priority 2015, published 2020).
“Also recorded” adds a separate entry of the source.

Experiments:
[1] = test system: TGF-β1 mRNA; assay: TGF-β1 mRNA expression by qRT-PCR in rabbit ear wound sites; format: in vivo, New Zealand White rabbits; conditions: for Rabbit TGFB1 mRNA Expression Fold by Treatment Relative to Untreated Wounded (mean ± SD): rabbit ear wound sites, Treated (each drug), N 5 or 6, intradermal; for mean TGFb1 mRNA level after intradermal treatment, in words: rabbit ear, compared with the vehicle-treated wound
Method: (§1) Eight wounds were created on the ventral surface of the ears of each of New Zealand White rabbits using skin punch biopsies, and then the wounds were allowed to heal for approximately 2 weeks.
(§2) A dose (e.g., 1%) of axitinib, nintedanib, riociguat, sorafenib, sunitinib, and/or lenvatinib was administered into the dermal tissue, once every two weeks on two occasions. Again, the specific doses, treatment methods and schedules are for illustration only. One skilled in the art would appreciate that variations and modifications are possible to achieve similar results.
(§3) On Day 42 post wound, the rabbits were sacrificed and dermal tissues were collected for qualitative and quantitative evaluation using hematoxylin and eosin and Mason's Trichrome staining. In addition, TGF-β1 mRNA expression levels were measured using qRT-PCR.

[2] = test system: TGF-β1 mRNA; assay: TGF-β1 mRNA expression by qRT-PCR in Yucatan pig skin wound sites; format: in vivo, Yucatan minipigs; conditions: minipig; compared to unwounded normal skin
Source text: (§4) In this experiment, multiple full-thickness excision wounds were made to the dorsum of Yucatan minipigs, and the wound sites were allowed to re-epithelialized adequately. At four weeks post-wound, the wound sites had normal to pink vascularity and had pliability. Epidermal hyperplasia was observed, as expected for regenerative responses in the full-thickness wounds.
(§5) On Day 28 post-wound, a dose (e.g., 1%) of axitinib, nintedanib, riociguat, sorafenib, sunitinib, and/or lenvatinib was administered into the dermal tissue at or around the wound sites, once every two weeks on two occasions. One wound site was left untreated as the control for each pig. Please note that the particular parameters in this example are only for illustration. One skilled in the art would appreciate that the dosages, administration methods, treatment regimen, and the administration sites may be varied to achieve similar results.
In addition, total mRNA was isolated from skin biopsies of the treated wound sites and the untreated unwounded sites of the pigs. The mRNA samples were used to prepare cDNA and analyzed via qRT-PCR. The TGF-β1 expression levels were assessed using beta actin as a reference gene.

[3] = test system: rabbit ear hypertrophic scar; assay: Rabbit ear hypertrophic scar model, histologic evaluation (H&E, Mason's Trichrome); format: in vivo, New Zealand White rabbits; conditions: intradermal, Day 42 post wound, compared with untreated and vehicle-treated wound; for fibrosis of treated wound, in words / neovascularization of treated wound, in words: once every two weeks on two occasions
Source text: In rabbits, wounds are created down to the bare cartilage on the ventral surface of the ear using a dermal biopsy punch. […] By both appearance and histological analysis, these scars resemble human hypertrophic scars. In this established model, it was shown that reduced TGF-β expression results in reduced scarring, which is consistent with the current understanding of the pathogenesis of excessive scarring/dermal fibrosis. […] Thus, this rabbit model was also used to assess the compounds of the invention.
as §1, §2, §3
Histologic slides for hematoxylin and eosin stainings were prepared from the wound sites. Tissues were evaluated qualitatively for inflammation, neovascularization, granulation tissue, degrees of re-epithelialization, and degrees of scarring (avascular collagen).

[4] = test system: full-thickness excision wounds on the dorsum of Yucatan minipigs; assay: Yucatan minipig full-thickness excision wound model, histologic evaluation (H&E, Mason's Trichrome); format: in vivo; conditions: for Fibroplasia; dermis, Average Scores / Neovascularization; dermis, Average Scores: minipig wound sites after two doses, Day 59 post wound, average of individual scores, scale 1 minimal to 5 severe
Source text: Porcine skin resembles human skin in many aspects. Both species have a relatively thick epidermis, distinct rete pegs, dermal papillae, and dense elastic fibers in the dermis. Furthermore, unlike rodents and rabbits, porcine skin is adherent to the subcutaneous structures, similar to human skin. Because of these anatomical similarities and other parallelisms in wound healing, porcine models have emerged as important foundations for the study of pathophysiology and potential treatment paradigms for abnormal wound healing. It has also been observed in porcine full-thickness wound healing in Yucatan Minipigs that the spatial and temporal expressions of TGF-β1, PDGF and VEGF were similar to the patterns for the growth factors described above. Therefore, the full-thickness excision models in Yucatan minipigs are the models for human wound healing studies.
as §4, §5
On Day 59 post wound, the minipigs were sacrificed and dermal tissues were collected for qualitative and quantitative evaluation using hematoxylin and eosin, and Mason's Trichrome staining. Dermal fibroplasia was characterized by increased numbers of fibroblasts in the dermis suspended in variable amounts of collagen in wounds.

[5] = minipig, two biweekly treatments, histopathology relative to the untreated wound

Compound | Rabbit TGFB1 mRNA Expression Fold by Treatment Relative to Untreated Wounded (mean ± SD) [1] [Fold] | TGF-β1 mRNA expression level at treated wounds, in words [2] | fibrosis of treated wound, in words [3] | neovascularization of treated wound, in words [3] | Fibroplasia; dermis, Average Scores [4] | Neovascularization; dermis, Average Scores [4] | mean TGFb1 mRNA level after intradermal treatment, in words [1] | re-epithelialization of treated wound, in words [3] | scar tissues of treated wound, in words [3] | dermal fibroplasia / fibrosis at treated wound, in words [4, 5] | neovascularization at treated wound, in words [4, 5]
COC(=O)N(C)c1c(N)nc(-c2nn(Cc3ccccc3F)c3ncccc23)nc1N [riociguat] | 1.14 ± 0.14 | most effective | slightly decreased | slightly decreased | (2.67) | (2.67) | – | – | – | – | –
COc1cc2nccc(Oc3ccc(NC(=O)NC4CC4)c(Cl)c3)c2cc1C(N)=O [lenvatinib] | 0.66 ± 0.25 | – | similar | similar | (3.00) | (2.33) | lower | similar | – | – | –
CNC(=O)c1cc(Oc2ccc(NC(=O)Nc3ccc(Cl)c(C(F)(F)F)c3)cc2)ccn1 [sorafenib] | 0.87 ± 0.13 | most effective | – | slightly increased | (3.00) | (2.33) | lower | – | – | – | –
CCN(CC)CCNC(=O)c1c(C)[nH]c(/C=C2\C(=O)Nc3ccc(F)cc32)c1C [sunitinib] | 0.76 ± 0.23 | – | – | – | (2.67) | (2.33) | – | – | – | – | –
CNC(=O)c1ccccc1Sc1ccc2c(/C=C/c3ccccn3)n[nH]c2c1 [axitinib] | 0.87 ± 0.28 | – | – | – | (2.33) | (1.67) | – | – | – | – | –
COC(=O)c1ccc2c(c1)NC(=O)/C2=C(\Nc1ccc(N(C)C(=O)CN2CCN(C)CC2)cc1)c1ccccc1 [nintedanib] | 0.73 ± 0.13 | most effective | decreased | decreased; also recorded: much less | (2.33) | (1.67) | lower | – | less | reduced | noticeably reduced
